Consider one compound from article PMC7486443, “Generation of Phenothiazine with Potent Anti-TLK1 Activity for Prostate Cancer Therapy” (iScience, 2020).

Some targets named below: WNK1 (Homo sapiens, UniProt Q9H4A3); STK36 (Homo sapiens, UniProt Q9NRP7); AAK1 (Homo sapiens, UniProt Q2M2I8); NEK9 (Homo sapiens, UniProt Q8TD19); LRRK2(G2019S) (Homo sapiens, UniProt Q5S007, G2019S); FLT3(D835V) (Homo sapiens, UniProt P36888, D835V); RET(M918T) (Homo sapiens, UniProt P07949, M918T); LCK (Homo sapiens, UniProt P06239); PRKD1 (Homo sapiens, UniProt Q15139); DAPK3 (Homo sapiens, UniProt O43293); PDGFRB (Homo sapiens, UniProt P09619); PIKFYVE (Homo sapiens, UniProt Q9Y2I7); CDK9 (Homo sapiens, UniProt P50750); PLK1 (Homo sapiens, UniProt P53350).

What all share (test): biochemical
Holding throughout (parameters): DiscoverX KINOMEscan scanMAX competition binding panel, single concentration, percent of control; remaining binding: dose or concentration left out as unconfirmed
Conditions in all cases: KINOMEscan binding, percent of control; read-out: Table S4_SCANMAX REPORT - related to Fig. 1 / Percent Control

For a further assay, the target named is T1, ABL1-nonphosphorylated (Homo sapiens, UniProt P00519).
T1 construct: nonphosphorylated
T1 sequence (P00519 whole entry): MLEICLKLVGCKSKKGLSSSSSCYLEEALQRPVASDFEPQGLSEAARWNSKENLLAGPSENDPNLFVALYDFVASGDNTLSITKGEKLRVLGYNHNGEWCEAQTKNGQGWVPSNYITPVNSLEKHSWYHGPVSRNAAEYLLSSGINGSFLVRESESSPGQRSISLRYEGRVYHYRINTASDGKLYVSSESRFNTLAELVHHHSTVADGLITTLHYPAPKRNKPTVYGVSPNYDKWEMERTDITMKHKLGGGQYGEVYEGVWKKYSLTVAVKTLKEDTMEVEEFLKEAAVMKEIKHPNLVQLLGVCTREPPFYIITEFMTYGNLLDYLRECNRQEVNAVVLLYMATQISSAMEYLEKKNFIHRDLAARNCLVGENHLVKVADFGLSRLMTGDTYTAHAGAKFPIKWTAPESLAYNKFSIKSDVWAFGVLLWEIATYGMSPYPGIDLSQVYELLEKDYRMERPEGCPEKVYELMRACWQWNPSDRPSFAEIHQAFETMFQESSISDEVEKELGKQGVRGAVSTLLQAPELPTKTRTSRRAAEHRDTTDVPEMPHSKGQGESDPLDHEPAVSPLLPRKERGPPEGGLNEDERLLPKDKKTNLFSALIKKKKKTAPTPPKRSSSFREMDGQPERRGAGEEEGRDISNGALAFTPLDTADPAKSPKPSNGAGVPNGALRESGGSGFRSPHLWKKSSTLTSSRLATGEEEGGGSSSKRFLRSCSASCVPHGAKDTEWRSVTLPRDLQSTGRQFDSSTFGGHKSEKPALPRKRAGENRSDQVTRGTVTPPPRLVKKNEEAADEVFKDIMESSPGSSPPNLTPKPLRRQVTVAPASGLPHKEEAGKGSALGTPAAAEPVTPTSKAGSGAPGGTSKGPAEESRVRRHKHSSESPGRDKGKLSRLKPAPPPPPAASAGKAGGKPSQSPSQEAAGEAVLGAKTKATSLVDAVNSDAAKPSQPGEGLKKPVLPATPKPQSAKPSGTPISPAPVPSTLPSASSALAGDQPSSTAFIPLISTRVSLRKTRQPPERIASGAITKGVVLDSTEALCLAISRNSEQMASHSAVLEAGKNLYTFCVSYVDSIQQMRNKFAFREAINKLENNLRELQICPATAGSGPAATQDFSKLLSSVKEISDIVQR

The target of the next assay is T2, SIK (Homo sapiens, UniProt P57059).
T2 construct: gene SIK1
T2 sequence (P57059 whole entry): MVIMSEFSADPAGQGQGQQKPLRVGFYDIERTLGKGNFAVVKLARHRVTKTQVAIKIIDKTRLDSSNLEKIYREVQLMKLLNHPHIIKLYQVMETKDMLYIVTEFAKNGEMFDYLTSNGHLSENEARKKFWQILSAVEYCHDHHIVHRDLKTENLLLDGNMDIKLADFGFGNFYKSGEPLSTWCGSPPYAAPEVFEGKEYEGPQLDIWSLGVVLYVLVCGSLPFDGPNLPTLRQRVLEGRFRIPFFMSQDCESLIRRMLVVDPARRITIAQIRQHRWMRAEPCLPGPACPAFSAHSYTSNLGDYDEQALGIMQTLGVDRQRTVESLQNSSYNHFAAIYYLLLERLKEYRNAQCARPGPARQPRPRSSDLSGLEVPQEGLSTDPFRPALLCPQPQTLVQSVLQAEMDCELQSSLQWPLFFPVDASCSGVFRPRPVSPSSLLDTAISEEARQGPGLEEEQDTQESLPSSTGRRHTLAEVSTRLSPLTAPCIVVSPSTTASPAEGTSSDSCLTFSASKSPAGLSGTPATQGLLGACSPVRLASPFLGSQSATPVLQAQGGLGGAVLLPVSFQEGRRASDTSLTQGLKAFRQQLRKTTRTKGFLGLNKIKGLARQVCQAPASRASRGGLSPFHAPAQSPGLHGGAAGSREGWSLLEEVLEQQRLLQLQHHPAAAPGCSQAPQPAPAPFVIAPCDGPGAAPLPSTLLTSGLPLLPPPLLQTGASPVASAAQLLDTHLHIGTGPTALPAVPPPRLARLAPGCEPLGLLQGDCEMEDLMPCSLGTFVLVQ

Another assay has as its target T3, CDC2L5 (Homo sapiens, UniProt Q14004).
T3 construct: gene CDK13

The target of a further assay is T4, CDC2L1 (Homo sapiens, UniProt P21127).
T4 construct: gene CDK11B

Each structure is given as a SMILES string.

Sequence of RET(M918T) (P07949 whole entry M918T): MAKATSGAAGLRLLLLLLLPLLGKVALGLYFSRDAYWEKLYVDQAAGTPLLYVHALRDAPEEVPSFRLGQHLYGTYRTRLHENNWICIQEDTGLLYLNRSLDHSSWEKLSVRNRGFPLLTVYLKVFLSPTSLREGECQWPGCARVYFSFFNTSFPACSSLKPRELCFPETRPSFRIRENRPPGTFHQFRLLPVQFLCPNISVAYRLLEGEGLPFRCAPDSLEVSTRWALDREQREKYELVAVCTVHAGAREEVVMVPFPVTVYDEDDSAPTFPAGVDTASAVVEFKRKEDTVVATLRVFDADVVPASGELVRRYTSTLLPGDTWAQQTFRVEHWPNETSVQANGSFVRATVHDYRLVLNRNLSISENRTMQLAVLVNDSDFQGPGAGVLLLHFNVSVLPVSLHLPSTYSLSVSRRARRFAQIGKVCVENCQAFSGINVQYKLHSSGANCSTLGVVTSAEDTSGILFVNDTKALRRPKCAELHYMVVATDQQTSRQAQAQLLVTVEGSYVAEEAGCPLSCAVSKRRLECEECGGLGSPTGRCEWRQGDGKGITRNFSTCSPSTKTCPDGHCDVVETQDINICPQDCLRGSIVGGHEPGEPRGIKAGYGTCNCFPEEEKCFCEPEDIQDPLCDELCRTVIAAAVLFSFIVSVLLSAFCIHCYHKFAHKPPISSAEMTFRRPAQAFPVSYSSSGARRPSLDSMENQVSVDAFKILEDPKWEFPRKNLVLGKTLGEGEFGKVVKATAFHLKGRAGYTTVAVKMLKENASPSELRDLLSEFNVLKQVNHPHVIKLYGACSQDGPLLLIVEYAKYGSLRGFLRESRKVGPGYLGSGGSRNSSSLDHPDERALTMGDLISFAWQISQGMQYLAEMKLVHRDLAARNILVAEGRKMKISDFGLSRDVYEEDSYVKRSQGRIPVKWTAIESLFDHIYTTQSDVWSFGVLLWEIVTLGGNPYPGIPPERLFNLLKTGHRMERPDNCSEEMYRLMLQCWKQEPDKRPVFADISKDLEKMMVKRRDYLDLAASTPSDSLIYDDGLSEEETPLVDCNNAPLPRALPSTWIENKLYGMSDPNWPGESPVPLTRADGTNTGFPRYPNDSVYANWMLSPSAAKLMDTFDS
Sequence of AAK1 (Q2M2I8 whole entry): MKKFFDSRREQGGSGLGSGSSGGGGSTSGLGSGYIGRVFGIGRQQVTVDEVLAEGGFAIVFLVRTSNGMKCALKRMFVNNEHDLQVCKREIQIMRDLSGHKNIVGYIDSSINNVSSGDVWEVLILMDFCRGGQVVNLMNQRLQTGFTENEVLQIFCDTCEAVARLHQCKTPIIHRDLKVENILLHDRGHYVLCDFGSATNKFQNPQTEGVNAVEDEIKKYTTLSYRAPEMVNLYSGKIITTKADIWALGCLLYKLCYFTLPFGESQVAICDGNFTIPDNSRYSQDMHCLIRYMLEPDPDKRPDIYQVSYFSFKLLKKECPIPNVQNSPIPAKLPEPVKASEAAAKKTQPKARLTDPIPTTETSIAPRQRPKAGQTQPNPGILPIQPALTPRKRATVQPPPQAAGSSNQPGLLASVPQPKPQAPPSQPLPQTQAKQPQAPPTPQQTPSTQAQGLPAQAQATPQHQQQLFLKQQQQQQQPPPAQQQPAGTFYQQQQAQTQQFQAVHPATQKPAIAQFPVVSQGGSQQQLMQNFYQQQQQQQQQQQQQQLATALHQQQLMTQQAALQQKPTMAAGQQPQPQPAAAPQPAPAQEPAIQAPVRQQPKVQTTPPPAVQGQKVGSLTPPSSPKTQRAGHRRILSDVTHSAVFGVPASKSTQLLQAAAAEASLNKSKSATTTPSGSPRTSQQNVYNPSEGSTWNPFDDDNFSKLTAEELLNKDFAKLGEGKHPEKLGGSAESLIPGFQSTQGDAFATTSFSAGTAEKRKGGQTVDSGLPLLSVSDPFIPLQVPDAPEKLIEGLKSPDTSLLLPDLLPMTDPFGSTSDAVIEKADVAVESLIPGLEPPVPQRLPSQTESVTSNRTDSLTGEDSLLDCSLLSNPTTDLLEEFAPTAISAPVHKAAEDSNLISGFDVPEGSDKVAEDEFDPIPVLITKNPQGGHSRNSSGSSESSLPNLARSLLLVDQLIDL
Sequence of CDK9 (P50750 whole entry): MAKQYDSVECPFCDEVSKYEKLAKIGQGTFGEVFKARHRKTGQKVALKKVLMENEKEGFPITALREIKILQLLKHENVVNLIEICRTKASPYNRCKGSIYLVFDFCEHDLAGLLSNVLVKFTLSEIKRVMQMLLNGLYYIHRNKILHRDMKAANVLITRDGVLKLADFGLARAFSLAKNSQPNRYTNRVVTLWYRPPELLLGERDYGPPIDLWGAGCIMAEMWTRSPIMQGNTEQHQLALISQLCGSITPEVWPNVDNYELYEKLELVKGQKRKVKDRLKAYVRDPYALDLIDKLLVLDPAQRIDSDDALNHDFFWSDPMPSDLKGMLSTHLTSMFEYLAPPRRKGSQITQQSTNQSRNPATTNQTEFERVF
Sequence of DAPK3 (O43293 whole entry): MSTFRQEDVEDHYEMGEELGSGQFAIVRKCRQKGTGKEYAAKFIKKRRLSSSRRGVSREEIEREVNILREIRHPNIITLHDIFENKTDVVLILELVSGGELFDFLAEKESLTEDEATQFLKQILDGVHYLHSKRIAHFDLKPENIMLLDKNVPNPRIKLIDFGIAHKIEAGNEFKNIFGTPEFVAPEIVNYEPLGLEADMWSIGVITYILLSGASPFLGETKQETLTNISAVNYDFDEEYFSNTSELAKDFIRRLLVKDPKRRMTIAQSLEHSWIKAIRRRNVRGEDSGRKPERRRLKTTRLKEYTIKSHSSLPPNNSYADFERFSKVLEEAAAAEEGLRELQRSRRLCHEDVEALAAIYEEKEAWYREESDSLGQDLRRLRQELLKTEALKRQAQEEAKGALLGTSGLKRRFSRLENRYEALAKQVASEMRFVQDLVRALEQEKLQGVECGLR

On to `c1ccc2c(c1)Sc1ccccc1N2CCN1CCOCC1` [J54], for which the remaining binding on WNK1 stood at 94%; on STK36 it was 67%; on AAK1 it was 80%; on NEK9, 100%; on ABL1-nonphosphorylated, 95%; at LRRK2(G2019S) it was 38%. The remaining binding at SIK stood at 91%; on FLT3(D835V), 46%; at RET(M918T), 97%; at LCK, 100%; on PRKD1, 97%; at DAPK3, 96%. In addition, the remaining binding on CDC2L5 came to 92%; on PDGFRB it was 100%; on PIKFYVE, 94%; at CDK9, 100%; at PLK1, 100%; on CDC2L1, 100%.
